Assay results as given in US12371459B2, “Antimicrobial peptide derived from Pseudin-2 peptide and uses thereof” (INDUSTRY-ACADEMIC COOPERATION FOUNDATION, CHOSUN UNIVERSITY, priority 2019, dated 2025).
Ends that are not written are not given here.

Legend:
[1] = system: erythrocytes of a mouse (Balb/c); test: Erythrocyte hemolytic activity; details: 1 hour at 37° C.
Protocol: To compare the cytotoxicity among the peptides that are produced by the method of Example 1, erythrocyte hemolytic activity of the synthesized peptide was measured.
After that, the amount of hemoglobin contained in a supernatant collected by centrifuge at 1,000×g was determined by measuring the absorbance at a wavelength of 414 nm. As a control to be used as a reference for cell disruption level, the supernatant collected by a treatment with 1% Triton X-100 (Sigma, USA) and a reaction for 1 hour at 37° C. was used to measure the absorbance. By setting the resulting absorbance value at 100% of the erythrocyte hemolytic activity, hemolysis of each peptide was calculated using the following equation 1. Erythrocyte disrupting ability (%)=(Absorbance A−Absorbance B)/(Absorbance C−Absorbance B)×100 Equation 1 (in the above equation, Absorbance A indicates the absorbance of a reaction solution treated with each peptide, in which the absorbance is measured at a wavelength of 414 nm; Absorbance B indicates the absorbance of a reaction solution treated with PBS, in which the absorbance is measured at a wavelength of 414 nm; and Absorbance C indicates the absorbance of a reaction solution treated with 1% Triton X-100, in which the absorbance is measured at a wavelength of 414 nm).

Staphylococcus aureus [2] = test: Scanning electron microscopy (SEM), membrane damage; type: cell-based; details: peptide at MIC, 1 hour at 37° C.
Protocol: (§1) As a control, cells applied with no peptide were used. After the culture, the cells were collected, and, by using 2.5% glutaraldehyde, the bacterial cells were treated for 18 hour at 4° C. After carrying out washing two times with PBS buffer solution, the fixed cells were dehydrated in stepwise manner by using 100% ethanol and diluted ethanol (50%, 70%, 90% and 100%). After the dehydration followed by drying, the specimen was coated with platinum and determination was made by low vacuum scanning electron microscopy.

Escherichia coli [3] = test: as above; type: cell-based; details: peptide at MIC, 1 hour at 37° C.
Protocol: as §1

[4] = Cytotoxicity in normal cell line (MTT); details: human, HaCaT keratinocyte cells
Protocol: (§2) To determine the cytotoxicity of the peptides produced by the method of Example 1 in normal cell line, cytotoxicity was measured by using human keratinocyte cell line (HaCaT cell line, Dr. N E. Fusenig, Heidelberg, Germany).
(§3) Specifically, HaCaT cells, which have been cultured in DMEM medium containing 10% FBS (fetal bovine serum), were aliquoted in a microtiter plate to have 2×10^5 cells per well. […] Twenty-four hours later, a reaction solution containing 0.5 mg/ml MTT (thiazolyl blue tetrazolium bromide) dissolved in phosphate buffered saline (PBS) was added in an amount of 100 μl to each well and the reaction was allowed to occur for 4 hours. After that, the supernatant was discarded, and, by dissolving MTT crystals that are formed by adding 200 μl DMSO (dimethyl sulfoxide), the absorbance at 560 nm was measured to determine the cell survival ability.

plasmid DNA (pRSETB) = test: Binding between antimicrobial peptide and DNA (agarose gel electrophoresis); details: plasmid DNA 300 ng, peptide/DNA ratio 0.25:1 to 4:1, 10 minutes at 37° C.
Protocol: Specifically, plasmid DNA (pRSETB, 300 ng) and the peptide were reacted for at different ratio (i.e., peptide/DNA ratio was 0 (DNA only), 0.25:1, 0.5:1, 1:1, 1.5:1, 2:1, 3:1, or 4:1) for 10 minutes at 37° C. After that, electrophoresis was carried out using 1% agarose gel followed by staining with ethidium bromide (EtBr) and UV determination.

Staphylococcus aureus [5] = test: Flow cytometry, propidium iodide, effect on bacteria membrane; type: cell-based; details: peptide at MIC
Protocol: (§4) After that, the supernatant was removed by centrifuge (10,000 rpm) and stained with propidium iodide (PI, concentration of 10 μg/ml) for 30 minutes at 4° C. Thereafter, unbound propidium iodide was removed by centrifuge, and the problem of cell aggregation phenomenon was solved by adding physiological saline (PBS) in an amount of 1 ml.

Escherichia coli [6] = test: as above; type: cell-based; details: peptide at MIC
Protocol: as §4

[7] = system: human keratinocyte cell line (HaCaT); test: in vitro; details: HaCaT keratinocyte cells, 24 h, 100 µM
Protocol: as §2, §3

[8] = system: Listeria monocytogenes KCTC 3710; details: KCTC 3710, 18 h
Text: (§5) To compare the antimicrobial activity among the peptides produced by the method of Example 1, the inventors of the present invention measured the minimal growth inhibitory concentration (MIC), which is minimum concentration of the peptide not allowing any […] of bacterial cells.
(§6) Specifically, the bacterial strains described in the following Table 2 were purchased and cultured to a mid-log phase in a medium that is appropriate for each strain. […] After the addition to a plate, the cells were cultured for 18 hours at 37° C. […] As a control, Pseudin-2 as a mother peptide was used.

[9] = system: Escherichia coli ATCC 25922; details: ATCC 25922, 18 h
Text: as §5, §6

[10] = system: Staphylococcus aureus ATCC 25923; details: ATCC 25923, 18 h
Text: as §5, §6

[11] = system: Trichosporon beigelii KCTC 7707; details: KCTC 7707, 18 h
Text: as §5, §6

[12] = system: Pseudomonas aeruginosa isolated strain 4891 (tolerance to antibiotics)
Text: as §5, §6

[13] = system: Escherichia coli CCARM 1229 (tolerance to antibiotics)
Text: as §5, §6

[14] = system: Pseudomonas aeruginosa isolated strain 4007 (tolerance to antibiotics)
Text: as §5, §6

[15] = system: Staphylococcus aureus CCARM 3518 (tolerance to antibiotics)
Text: as §5, §6

[16] = system: Salmonella typhimurium KCTC 1926; details: KCTC 1926, 18 h
Text: as §5, §6

[17] = system: Candida albicans KCTC 7270; details: KCTC 7270, 18 h
Text: as §5, §6

[18] = system: Escherichia coli CCARM 1238 (tolerance to antibiotics)
Text: as §5, §6

[19] = system: Pseudomonas aeruginosa ATCC 27853; details: ATCC 27853, 18 h
Text: as §5, §6

[20] = system: Staphylococcus aureus CCARM 3090 (tolerance to antibiotics)
Text: as §5, §6

[21] = system: Bacillus subtilis KCTC 1998; details: KCTC 1998, 18 h
Text: as §5, §6

[22] = system: P. aeruginosa (ATCC 27853); details: 24 hours at 37° C.
P. aeruginosa 4891 = details: P. aeruginosa 4891, 24 hours at 37° C.
S. aureus (ATCC 25923) = details: 24 hours at 37° C.
E. coli (CCARM 1238) = details: 24 hours at 37° C.
P. aeruginosa 4007 = details: P. aeruginosa 4007, 24 hours at 37° C.
E. coli (ATCC 25922) = details: 24 hours at 37° C.
S. aureus (CCARM 3518) = details: 24 hours at 37° C.
E. coli (CCARM 1229) = details: 24 hours at 37° C.
S. aureus (CCARM 3090) = details: 24 hours at 37° C.

LNALKKVFQGIHEAIKKI-NH2 [Pse-T3]
Erythrocyte disrupting ability ([1]; peptide concentration 3.13 μM): 0% | Erythrocyte disrupting ability ([1]; peptide concentration 6.25 μM): 0% | Erythrocyte disrupting ability ([1]; peptide concentration 12.5 μM): 0% | Erythrocyte disrupting ability ([1]; peptide concentration 25 μM): 0.5% | Erythrocyte disrupting ability ([1]; peptide concentration 50 μM): 2.2% | Erythrocyte disrupting ability ([1]; peptide concentration 100 μM): 5.6% | Membrane damage by SEM (Staphylococcus aureus [2]): higher damage and disruption of cell membrane | Membrane damage by SEM (Escherichia coli [3]): rougher than the cells treated with Pseudin-2 | viability at 24 h, 3.13 µM [4]: 100% | viability at 24 h, 6.25 µM [4]: 100% | viability at 24 h, 12.5 µM [4]: 100% | viability at 24 h, 25 µM [4]: 100% | viability at 24 h, 50 µM [4]: 100% | viability at 24 h, 100 µM [4]: 90.3% | Binding to DNA (plasmid DNA (pRSETB)): showed binding to DNA | Membrane disrupting ability compared with Pseudin-2 (Staphylococcus aureus [5]): higher membrane disrupting ability than Pseudin-2 | Membrane disrupting ability compared with Pseudin-2 (Escherichia coli [6]): higher membrane disrupting ability than Pseudin-2

WLNALKKVWQGIHEAIKLIWNWVQ-NH2 [Pse-Anal4]
Cell survival ability [7]: 10.8% | viability at 24 h, 3.13 µM ([4]; Cell survival ability): 46.1% | viability at 24 h, 6.25 µM ([4]; Cell survival ability): 35.1% | viability at 24 h, 12.5 µM ([4]; Cell survival ability): 25.4% | viability at 24 h, 25 µM ([4]; Cell survival ability): 20.8% | viability at 24 h, 50 µM ([4]; Cell survival ability): 15.3% | viability at 24 h, 100 µM ([4]; Cell survival ability): 10.1% | Minimal inhibitory concentration [8]: 32 µM | Minimal inhibitory concentration [9]: 16 µM | Minimal inhibitory concentration [10]: 32 µM | Minimal inhibitory concentration [11]: 32 µM | Minimal inhibitory concentration [12]: 64 µM | Minimal inhibitory concentration [13]: 32 µM | Minimal inhibitory concentration [14]: 64 µM | Minimal inhibitory concentration [15]: 32 µM | Minimal inhibitory concentration [16]: 16 µM | Minimal inhibitory concentration [17]: 32 µM | Minimal inhibitory concentration [18]: 32 µM | Minimal inhibitory concentration [19]: 16 µM | Minimal inhibitory concentration [20]: 32 µM | Minimal inhibitory concentration [21]: 32 µM

O=C(O)c1cn(C2CC2)c2cc(N3CCNCC3)c(F)cc2c1=O [Ciprofloxacin]
Biofilm minimal inhibitory concentration [22]: 2 µM | Biofilm minimal inhibitory concentration (P. aeruginosa 4891): >400 µM | Biofilm minimal inhibitory concentration (S. aureus (ATCC 25923)): 4 µM | Biofilm minimal inhibitory concentration (E. coli (CCARM 1238)): 128 µM | Biofilm minimal inhibitory concentration (P. aeruginosa 4007): >400 µM | Biofilm minimal inhibitory concentration (E. coli (ATCC 25922)): 2 µM | Biofilm minimal inhibitory concentration (S. aureus (CCARM 3518)): >400 µM | Biofilm minimal inhibitory concentration (E. coli (CCARM 1229)): 128 µM | Biofilm minimal inhibitory concentration (S. aureus (CCARM 3090)): >400 µM
